Test [1] addresses T1, panel of 442 kinases (Homo sapiens, UniProt Q8IWQ3).
T1 construct: purchased KINOMEscan
T1 sequence (Q8IWQ3 1-736): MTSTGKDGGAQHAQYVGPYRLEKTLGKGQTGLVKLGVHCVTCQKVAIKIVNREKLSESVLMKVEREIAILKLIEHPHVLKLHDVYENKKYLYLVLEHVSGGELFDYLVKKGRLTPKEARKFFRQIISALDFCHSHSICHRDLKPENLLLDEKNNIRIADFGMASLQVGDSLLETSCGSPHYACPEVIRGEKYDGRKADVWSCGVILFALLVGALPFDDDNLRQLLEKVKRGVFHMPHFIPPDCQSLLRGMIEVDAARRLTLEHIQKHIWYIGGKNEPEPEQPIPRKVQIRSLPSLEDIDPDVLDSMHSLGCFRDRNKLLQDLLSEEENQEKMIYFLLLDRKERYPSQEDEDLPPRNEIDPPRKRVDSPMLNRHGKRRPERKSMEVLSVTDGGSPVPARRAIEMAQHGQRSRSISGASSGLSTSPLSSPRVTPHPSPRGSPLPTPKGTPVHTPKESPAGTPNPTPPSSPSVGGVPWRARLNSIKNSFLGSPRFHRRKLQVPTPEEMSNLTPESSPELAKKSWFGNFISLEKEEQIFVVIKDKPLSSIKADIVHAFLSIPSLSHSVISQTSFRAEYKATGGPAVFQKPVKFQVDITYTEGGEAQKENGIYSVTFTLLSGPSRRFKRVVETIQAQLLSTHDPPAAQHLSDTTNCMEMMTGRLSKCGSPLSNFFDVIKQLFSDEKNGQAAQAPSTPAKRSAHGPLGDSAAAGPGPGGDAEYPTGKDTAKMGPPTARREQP
Type of test: binding. The arrangement: KINOMEscan: ABL1(F317L)-phosphorylated / KINOMEscan: ABL1(H396P)-nonphosphorylated / KINOMEscan: ABL1(H396P)-phosphorylated / KINOMEscan: ABL1(M351T)-phosphorylated / KINOMEscan: ABL1(T315I)-phosphorylated / KINOMEscan: ABL1-nonphosphorylated / KINOMEscan: ABL1-phosphorylated / KINOMEscan: ACVR2A / KINOMEscan: ACVR2B / KINOMEscan: ADCK3 / KINOMEscan: ADCK4 / KINOMEscan: AKT1 / KINOMEscan: AKT3 / KINOMEscan: ALK / KINOMEscan: ARK5 / KINOMEscan: AURKA / KINOMEscan: AURKC / KINOMEscan: BIKE / KINOMEscan: BMPR1A / KINOMEscan: BMPR1B / KINOMEscan: BMX / KINOMEscan: BRK / KINOMEscan: BRSK1 / KINOMEscan: BRSK2 / KINOMEscan: CAMK1 / KINOMEscan: CAMK1D / KINOMEscan: CAMK1G / KINOMEscan: CAMK2A / KINOMEscan: CAMK2B / KINOMEscan: AAK1 / KINOMEscan: CAMK2D / KINOMEscan: CAMK2G / KINOMEscan: ABL1(F317I)-nonphosphorylated / KINOMEscan: ABL1(F317I)-phosphorylated / KINOMEscan: ABL1(F317L)-nonphosphorylated: unit: % Ctrl. The following applies: Compound Concentration 10 µM. From the text:
(§1) We assessed the selectivity of members of this scaffold using the KINOMEscan methodology across a near comprehensive panel of 442 kinases [[18,27]].

Test [2] has as its target T2, panel of 442 kinases (Homo sapiens, UniProt O15146).
T2 construct: purchased KINOMEscan
T2 sequence (O15146 24-869): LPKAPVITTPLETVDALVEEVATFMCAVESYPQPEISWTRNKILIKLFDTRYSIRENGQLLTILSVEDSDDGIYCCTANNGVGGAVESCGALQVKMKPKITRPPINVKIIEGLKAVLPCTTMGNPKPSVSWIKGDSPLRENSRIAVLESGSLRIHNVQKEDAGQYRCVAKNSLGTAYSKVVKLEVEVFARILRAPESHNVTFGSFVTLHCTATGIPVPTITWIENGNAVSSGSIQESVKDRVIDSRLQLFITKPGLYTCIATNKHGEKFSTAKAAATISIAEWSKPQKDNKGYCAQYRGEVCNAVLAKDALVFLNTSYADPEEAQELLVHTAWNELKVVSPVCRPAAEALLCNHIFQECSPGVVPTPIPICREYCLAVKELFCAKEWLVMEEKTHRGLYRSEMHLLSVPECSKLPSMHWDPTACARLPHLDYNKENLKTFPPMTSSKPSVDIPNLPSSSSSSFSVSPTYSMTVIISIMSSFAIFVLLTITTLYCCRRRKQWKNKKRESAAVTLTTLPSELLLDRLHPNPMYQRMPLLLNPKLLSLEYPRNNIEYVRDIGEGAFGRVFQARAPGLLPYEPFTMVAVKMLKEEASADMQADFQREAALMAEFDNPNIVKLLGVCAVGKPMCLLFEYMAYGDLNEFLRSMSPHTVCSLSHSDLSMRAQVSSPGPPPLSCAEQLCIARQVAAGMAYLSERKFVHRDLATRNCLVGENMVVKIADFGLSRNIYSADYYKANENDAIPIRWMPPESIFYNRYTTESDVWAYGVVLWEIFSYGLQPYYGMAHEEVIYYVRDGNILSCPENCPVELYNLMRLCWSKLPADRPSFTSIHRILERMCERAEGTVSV
Type of test: binding. Details: KINOMEscan: ABL1(F317L)-phosphorylated / KINOMEscan: ABL1(H396P)-nonphosphorylated / KINOMEscan: ABL1(H396P)-phosphorylated / KINOMEscan: ABL1(M351T)-phosphorylated / KINOMEscan: ABL1(T315I)-phosphorylated / KINOMEscan: ABL1-nonphosphorylated / KINOMEscan: ABL1-phosphorylated / KINOMEscan: ACVR2A / KINOMEscan: ACVR2B / KINOMEscan: ADCK3 / KINOMEscan: ADCK4 / KINOMEscan: AKT1 / KINOMEscan: AKT3 / KINOMEscan: ALK / KINOMEscan: ARK5 / KINOMEscan: AURKA / KINOMEscan: AURKC / KINOMEscan: BIKE / KINOMEscan: BMPR1A / KINOMEscan: BMPR1B / KINOMEscan: BMX / KINOMEscan: BRK / KINOMEscan: BRSK1 / KINOMEscan: BRSK2 / KINOMEscan: CAMK1 / KINOMEscan: CAMK1D / KINOMEscan: CAMK1G / KINOMEscan: CAMK2A / KINOMEscan: CAMK2B / KINOMEscan: AAK1 / KINOMEscan: CAMK2D / KINOMEscan: CAMK2G / KINOMEscan: ABL1(F317I)-nonphosphorylated / KINOMEscan: ABL1(F317I)-phosphorylated / KINOMEscan: ABL1(F317L)-nonphosphorylated: unit: % Ctrl. The following applies: Compound Concentration 10 µM.
Source text: as §1

As to `COc1cc(C(=O)N2CCC(N3CCN(C)CC3)CC2)ccc1Nc1ncc2c(n1)N(C1CCCC1)c1ccccc1C(=O)N2C` [Compound 25, 11-cyclopentyl-2-((2-methoxy-4-(4-(4-methylpiperazin-1-yl)piperidine-1-carbonyl)phenyl)amino)-5-methyl-5H-benzo[e]pyrimido[5,4-b][1,4]diazepin-6(11H)-one], the “KINOMEscan: BRSK2” value on panel of 442 kinases [1] is listed as 80. Besides, at panel of 442 kinases [2], the “KINOMEscan: MUSK” value is on record as 100.

`COc1cc(C(=O)N2CCC(N3CCN(C)CC3)CC2)ccc1Nc1ncc2c(n1)N1CCc3cccc(c31)C(=O)N2C` [Compound 24]: the “KINOMEscan: BRSK2” value on panel of 442 kinases [1] turned out to be 81.

As for `COc1cc(C(=O)N2CCC(N3CCN(C)CC3)CC2)ccc1Nc1ncc2c(n1)N(C)c1ccccc1C(=O)N2C` [15 (LRRK2-IN-1)], on panel of 442 kinases [1], the “KINOMEscan: BRSK2” value amounted to 64. Besides, the “KINOMEscan: MUSK” value at panel of 442 kinases [2] was 99. Take `CCOc1cc(C(=O)N2CCC(N3CCN(C)CC3)CC2)ccc1Nc1ncc2c(n1)N(C1CCCC1)c1ccccc1C(=O)N2C` [Compound 26]: the “KINOMEscan: BRSK2” value at panel of 442 kinases [1] was 92. Also, the “KINOMEscan: MUSK” value on panel of 442 kinases [2] stood at 100.

The values above are taken from article PMC3914206.
